{
  "source": "patent US6451288B1",
  "about": "“Method of treating lung diseases with uridine 5′-diphosphate and analogs thereof” (The University of North Carolina at Chapel Hill, priority 1997, dated 2002)",
  "key": {"[1]": {"test_system": "human nasal epithelial cells", "experiment": "Cl- secretion (transepithelial potential difference, Ussing chamber) in human nasal epithelial cells", "assay_type": "cell-based", "protocol": "(§1) Human nasal epithelial cells were harvested from turbinates using protease XIV (Sigma, St. Louis, Mo.) for 24-48 h at 4° C., as previously described. R. Wu, et al., Am. Rev. Respir. Dis. 132, 311-320 (1985). Cytosolic Ca^2+ and inositol phosphate measurements were made on nasal cell monolayers plated on porous Transwell Col filters (pore diameter 0.45 μm; Costar, Cambridge, Mass.) and maintained in Ham's F12 media supplemented with 10 ng/mL epidermal growth factor, 3.75 ng/mL endothelial cell growth factor, 500 ng/mL hydrocortisone, 5 ng/mL insulin, and 1 mM CaCl2 (Ham's F12+4X medium). Assays were carried out 7 to 10 days after seeding, a time coincident with the development of the maximal transepithelial potential difference according to N. Nakahata & T. K. Harden, Biochem. J. 241, 337-344 (1987).\n(§2) Nasal cells grown on Transwell Col filters affixed to O-rings were maintained in F12+4X medium and studied 7-10 days after cell plating as described above. For Ca^2+i measurements, cells were loaded with Fura-2 and mounted in a miniature Ussing chamber over an objective of a microscope (Zeiss) coupled to a microfluorimeter, and cytosolic Ca^2+i levels were quantitated as previously described in Paradiso et al., supra. The fluorescence intensity ratio (excitation 340/380; emission λ 450 nm) was collected from a field of 30-40 nasal cells on monolayers and converted to Ca^2+ as previously described in E. H. Larsen et al, J. Physiol. 424, 109-131 (1990). For simultaneous measurements of Cl^− secretion, the transepithelial potential difference (TEP) was measured by a Voltage-Clamp/Pulse Generator (Model VCC600, Physiologic Instruments, San Diego, Calif.) and recorded on a two-channel recorder (Linsesis Model L200S). To calculate changes in Cl^− secretory current (ΔICl^−), a defined 1 sec current pulse was delivered across the monolayer every 10 sec. The nasal tissue was converted from its native Na^+ absorptive state to a Cl^− secretory state by exposing monolayers to a luminal medium containing 0 Na^+/low Cl^− and to a basolateral medium of Krebs bicarbonate Ringer solution."}, "sheep [2]": {"test_system": "sheep", "experiment": "Tracheal mucus velocity in sheep", "assay_type": "in vivo", "conditions": "400 μmole nebulized", "from_the_text": "To measure the effect of UDP on tracheal mucus velocity (TMV), the nasal passages of conscious adult ewes were anesthetized with a 2% lidocaine solution. After local anesthesia was produced, a modified endotracheal tube (7.5 mm) was placed such that the cuff was just below the vocal cords (as verified by fluoroscopy). Inspired air was warmed and humidified. The cuff on the endotracheal tube was inflated only during administration of the test compound to minimize possible impairment of TMV by the cuff. Test compounds were administered by nebulization in a volume of 4 mL over a period of 10-12 min. TMV was measured by fluoroscopy. Ten to twenty radiopaque disks (Teflon/bismuth trioxide; 1 mm diameter; 0.8 mm thick, weighing 1.8 mg) were introduced into the trachea through a modified suction catheter with a puff of compressed air (3-4 L/min). Velocities of the individual disks were recorded on videotape form a portable image intensifier unit. Individual disk velocities were calculated by measuring the distance traveled by each disk during a 1 min observation period. Values reported are the means of the individual disk velocities. A collar was worn by the sheep, which was used as a standard to correct for magnification errors inherent in the fluoroscope."}, "sheep [3]": {"test_system": "sheep", "experiment": "Mucociliary clearance in sheep", "assay_type": "in vivo", "conditions": "400 μmole nebulized", "protocol": "Healthy adult ewes were given ^99mTc-labeled serum albumin (^99mTc-HCA) via a nebulized aerosol. The (^99mTc-HCA)(20 mCi) was administered over 5 minutes through a nasotracheal tube introduced under local anesthesia with 2% lidocaine. After administration of the ^99Tc-HCA, the animals were given the test compound UDP. The test compound was administered by nebulization in a volume of 4 mL over a period of 10-12 min. The test compound was given at a dose of 400 μmole. After the administration of the test compound, the animals were extubated. Clearance of the radiolabeled particles was monitored with a gamma camera. Measurements were made a 0, 5, 10, 15, 20, 25, 30, 35, 40, 45, 50, 55, 60, 75, 90, 105 and 120 minutes. Results of this study (n=7) have shown that the test compound promotes clearance of radiolabeled particles when compared to the saline control. […] The response to UDP was maximal at 60 minutes and was maintained for the second hour of the study. The results of this experiment are illustrated graphically in FIG. 6."}, "[4]": {"test_system": "human nasal epithelial cells", "experiment": "[3H]inositol phosphate formation in polarized human nasal epithelial cells", "assay_type": "cell-based", "protocol": "as §1\nConfluent human nasal epithelial cells as described in Example 1 were labeled for 18 h in inositol-free DMEM containing 4.5g/L glucose and 5 μCi/mL of [^3H]myo-inositol. These cells were pre-incubated with 10 mM LiCl and challenged with agonists for an additional 10 min. No changes of medium were made subsequent to addition of [^3H]myo-inositol to avoid release of endogenous ATP from stressed cells. E. R. Lazarowski et al., Br. J Pharmacol. 116, 1619-1627 (1995). Incubations were terminated by addition of 5% ice-cold trichloroacetic acid and the resultant [^3H]inositol phosphates were separated on Dowex AG1-X8 columns as described in A. M. Paradiso et al., Nature 377, 643-646 (1995)."}, "P2Y2 receptor": {"target": "P2Y2 receptor (Homo sapiens, UniProt P41231)", "sequence (P41231 whole entry)": "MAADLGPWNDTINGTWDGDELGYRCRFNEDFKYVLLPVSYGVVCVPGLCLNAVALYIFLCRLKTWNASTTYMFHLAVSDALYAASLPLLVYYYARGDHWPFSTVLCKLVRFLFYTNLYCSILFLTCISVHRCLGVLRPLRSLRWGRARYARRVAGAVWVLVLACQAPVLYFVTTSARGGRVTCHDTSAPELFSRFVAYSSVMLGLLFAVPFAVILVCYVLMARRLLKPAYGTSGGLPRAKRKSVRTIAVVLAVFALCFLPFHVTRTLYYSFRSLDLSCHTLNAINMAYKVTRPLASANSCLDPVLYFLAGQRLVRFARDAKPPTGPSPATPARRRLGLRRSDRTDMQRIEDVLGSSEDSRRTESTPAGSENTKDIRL", "conditions": "UTP-free UDP; cited from earlier work"}, "[5]": {"test_system": "human nasal epithelial cells", "experiment": "Cytosolic Ca2+ measurement (Fura-2) in human nasal epithelial cells", "assay_type": "cell-based", "protocol": "as §1, §2"}, "[6]": {"conditions": "subsequent 3 μM then 10 μM UDP, mucosal (desensitization)"}},
  "data": [
    {"smiles": "O=c1ccn([C@@H]2O[C@H](COP(=O)(O)OP(=O)(O)O)[C@@H](O)[C@H]2O)c(=O)[nH]1", "note": "[UDP, uridine 5′-diphosphate]", "values": [
      {"measurement": "ΔICl-, mucosal", "setting": "[1]; 3 μM, mucosal", "value": "16±3", "unit": "μA·cm^2"},
      {"measurement": "Cl- secretory response (ΔICl-)", "setting": "[1]; 3 μM, mucosal bath, first addition, n=8", "value": "−16.3±3", "unit": "μA/cm^2"},
      {"measurement": "ΔICl-, serosal", "setting": "[1]; 3 μM, serosal", "value": "0±0", "unit": "μA·cm^2"},
      {"measurement": "Magnitude of Cl- secretion response relative to mucosal UTP response", "setting": "[1]; mucosal", "value": "approximately one half"},
      {"measurement": "ΔICl- after subsequent addition", "setting": "[1]; [6]", "value": 0},
      {"measurement": "Time of maximal effect after administration (TMV)", "setting": "sheep [2]", "value": 15, "unit": "min"},
      {"measurement": "Time of maximal response (clearance)", "setting": "sheep [3]", "value": 60, "unit": "min"},
      {"measurement": "Maximal effect, clearance of radiolabeled particles", "setting": "sheep [3]; n=7", "value": "33.6±1.6", "unit": "% clearance"},
      {"measurement": "Accumulation of [3H]inositol phosphates, mucosal", "setting": "[4]; 100 μM, mucosal", "value": "marked accumulation"},
      {"measurement": "Effect on inositol phosphate accumulation, serosal bath", "setting": "[4]; 100 μM, serosal", "value": "negligible effect"},
      {"measurement": "EC50", "setting": "[4]; Homo sapiens, Epithelial cell, 10 min, added to mucosal medium, 10 min, read-out: EC50 for stimulating inositol phosphate formation", "value": "0.19 ± 0.027", "unit": "µM"},
      {"measurement": "Maximal inositol phosphate effect relative to response with mucosal UTP", "setting": "[4]; mucosal, 100 μM", "value": "approximately one half"},
      {"measurement": "Activity at the P2Y2 receptor", "setting": "P2Y2 receptor", "value": "essentially inactive"},
      {"measurement": "ΔCa2+ (mobilization of intracellular calcium)", "setting": "[5]; 3 μM, mucosal bath, first addition", "value": "66 ± 12", "unit": "nM"},
      {"measurement": "Maximal calcium mobilization effect relative to response with mucosal UTP", "setting": "[5]; mucosal, 100 μM", "value": "approximately one half"},
      {"measurement": "ΔCa2+ after subsequent addition", "setting": "[5]; [6]", "value": 0}
    ]}
  ]
}
